We go through 26 compounds from patent US12370183B2, “Compositions and methods for treating malaria” (Rutgers, The State University of New Jersey, priority 2020, dated 2025).

Where two headings read alike, the source gives them in different places. Where only a bound is given, the exact number is not on record here.

Assay [1] relates to 3D7 strain of Plasmodium falciparum. Nature of the assay: Potency in the 3D7 strain of Plasmodium falciparum (EC50). The assay is classed as cell-based. The note with it: Plasmodium falciparum. The text has this:
The present invention relates to methods of treating malaria with tetrahydrobenzonaphtyridine carboxanilide (TBN) derivatives and related pyrrolinones and hydrolysis products thereof. These compounds are active against Plasmodium falciparum strains that are resistant to multiple drugs currently on the market. The present invention further relates to novel compounds and pharmaceutical compositions comprising such compounds. The compounds have been synthesized and tested for their potency in the 3D7 strain of Plasmodium falciparum. Their cytotoxicity was also tested in the BJ human fibroblast line. No compounds show significant cytotoxicity.
(§1) A high-throughput screen performed against the Plasmodium parasite. About 8,000 compounds were screened. Each hit was tested against resistant P. falciparum variants K1, V1S, D10DD, ATP4 1247, and C2B. Potency against these assays assured that the chemotype acts through a mechanism distinct from that of halofantrine, chloroquine, mefloquine, pyrimethamine, proguanil, atovaquone, and (+)SJ733. The toxicity of the compounds was also measured by testing their lethality against a BJ cell line (human fibroblasts). No TBNs were toxic. A structure activity investigation was performed in order to improve the EC50 of the TBNs to the single-digit nanomolar range, as well as to increase the water solubility.
(§2) Substituents were installed at N−2 by using a variety of methods. Reductive alkylation (Abdel-Magid, A. F.; Mehrman, S. J. A Review on the Use of Sodium Triacetoxyborohydride in the Reductive Amination of Ketones and Aldehydes. Org. Process Res. Dev. 2006, 10 (5), 971-1031) was a dependable technique that produced over fifteen analogues. Conjugate additions and nucleophilic substitutions provided most of the others. A type of reductive alkylation that uses carboxylic acids instead of aldehydes (the Beller reduction) led to two analogues (Sorribes, I.; Junge, K.; Beller, M. Direct Catalytic N-Alkylation of Amines with Carboxylic Acids. J. Am. Chem. Soc. 2014, 136 (40), 14314-14319. Some of the compounds listed were synthesized through other means, or were derived from other TBNs. Compounds 66 and 128 were produced by the amidation of acids 132 and 133, which had the corresponding substitution already installed. TBNs 93, and 94 were produced from the Pfitzinger products formed from the condensation of isatin with (R)-1-(1-phenylethyl)piperidin-4-one (134) and (S)-1-(1-phenylethyl)piperidin-4-one (135), respectively.

The subject of assay [2] is resistant P. falciparum variant K1. Nature of the assay: Potency against resistant P. falciparum variant K1 (EC50). It counts as cell-based. The note with it: Plasmodium falciparum, K1, read-out: K1 EC50 (μM). As for the experimental part: as §1, §2
[3] abbreviates: 3D7, read-out: 3D7 Mean EC50 (μM).

Turning to `O=C(Nc1ccc(F)c(F)c1)c1c2c(nc3ccccc13)CCN(CC1CC1)C2` [Compound 101, 2-(Cyclopropylmethyl)-N-(3,4-difluorophenyl)-1,2,3,4-tetrahydrobenzo[b][1,6]naphthyridine-10-carboxamide], the EC50 (usually the concentration giving half of the maximal effect) in assay [1] (setting [3]) stood at 0.429 ± 0.303 µM; in assay [2] it was 0.272 µM. As to `CCN1CCc2nc3ccccc3c(C(=O)Nc3ccc(F)c(F)c3)c2C1` [Compound 128, N-(3,4-Difluorophenyl)-2-ethyl-1,2,3,4-tetrahydrobenzo[b][1,6]naphthyridine-10-carboxamide], the EC50 in assay [1] (setting [3]) is > 12.2 µM. Regarding `O=C(Nc1ccc(F)c(F)c1)c1c2c(nc3ccccc13)CCN(CCO)C2` [Compound 120, N-(3,4-Difluorophenyl)-2-(2-hydroxyethyl)-1,2,3,4-tetrahydrobenzo[b][1,6]naphthyridine-10-carboxamide], the results for the EC50 in assay [1] (setting [3]) and in assay [2] were 3.84 ± 2.08 µM and 2.2 ± 0.268 µM, respectively. The corresponding values for `C[C@@H](c1ccccc1)N1CCc2nc3ccccc3c(C(=O)Nc3ccc(F)c(F)c3)c2C1` [Compound 94, (S)—N-(3,4-Difluorophenyl)-2-(1-phenylethyl)-1,2,3,4-tetrahydrobenzo[b][1,6]naphthyridine-10-carboxamide] are 0.154 ± 0.0285 µM and 0.148 µM.

For the compound `O=C(Nc1ccc(F)c(F)c1)c1c2c(nc3ccccc13)CCN(Cc1cncc(F)c1)C2` [Compound 115, N-(3,4-Difluorophenyl)-2-((5-fluoropyridin-3-yl)methyl)-1,2,3,4-tetrahydrobenzo[b][1,6]naphthyridine-10-carboxamide], in assay [1] (setting [3]), the EC50 was 1.96 ± 2.34 µM. As for `Cc1nc(CN2CCc3nc4ccccc4c(C(=O)Nc4ccc(F)c(F)c4)c3C2)cs1` [Compound 112, N-(3,4-Difluorophenyl)-2-((2-methylthiazol-4-yl)methyl)-1,2,3,4-tetrahydrobenzo[b][1,6]naphthyridine-10-carboxamide], the EC50 came out at 1.03 ± 0.549 µM in assay [1] (setting [3]) and 0.641 µM in assay [2]. On to `O=C(Nc1ccc(F)c(F)c1)c1c2c(nc3ccc(Cl)cc13)CCN(CCc1ccccc1)C2` [Compound 158, 8-Chloro-N-(3,4-difluorophenyl)-2-phenethyl-1,2,3,4-tetrahydrobenzo[b][1,6]naphthyridine-10-carboxamide], for which, in assay [1] (setting [3]), the EC50 was 0.0153 ± 0.00774 µM. The same measure, in the same setting: the value for `O=C(Nc1ccc(F)c(F)c1)c1c2c(nc3ccccc13)CCN(CCc1ccccn1)C2` [Compound 98, N-(3,4-Difluorophenyl)-2-(2-(pyridin-2-yl)ethyl)-1,2,3,4-tetrahydrobenzo[b][1,6]naphthyridine-10-carboxamide] was 0.329 ± 0.0232 µM. In the case of `CC(C)N1CCc2nc3ccccc3c(C(=O)Nc3ccc(F)c(F)c3)c2C1` [Compound 96, N-(3,4-Difluorophenyl)-2-isopropyl-1,2,3,4-tetrahydrobenzo[b][1,6]naphthyridine-10-carboxamide], the EC50 was determined as 0.215 ± 0.269 µM in assay [1] (setting [3]) and 0.177 µM in assay [2]. The corresponding values for `CCCCN1CCc2nc3ccccc3c(C(=O)Nc3ccc(F)c(F)c3)c2C1` [Compound 99, 2-Butyl-N-(3,4-difluorophenyl)-1,2,3,4-tetrahydrobenzo[b][1,6]naphthyridine-10-carboxamide] are 0.37 ± 0.376 µM and 0.102 µM. The corresponding values for `O=C(Nc1ccc(F)c(F)c1)c1c2c(nc3ccccc13)CCN(CCCC(F)(F)F)C2` [Compound 108, N-(3,4-Difluorophenyl)-2-(4,4,4-trifluorobutyl)-1,2,3,4-tetrahydrobenzo[b][1,6]naphthyridine-10-carboxamide] are 0.665 ± 0.734 µM and 0.241 µM.

For the compound `O=C(Nc1ccc(F)c(F)c1)c1c2c(nc3ccccc13)CCN(CCN1C(=O)c3ccccc3C1=O)C2` [Compound 121, N-(3,4-Difluorophenyl)-2-(2-(1,3-dioxoisoindolin-2-yl)ethyl)-1,2,3,4-tetrahydrobenzo[b][1,6]naphthyridine-10-carboxamide], in assay [1] (setting [3]), the EC50 was 3.95 ± 1.07 µM.

As for `CCOCCN1CCc2nc3ccccc3c(C(=O)Nc3ccc(F)c(F)c3)c2C1` [Compound 103, N-(3,4-Difluorophenyl)-2-(2-ethoxyethyl)-1,2,3,4-tetrahydrobenzo[b][1,6]naphthyridine-10-carboxamide], the EC50 in assay [1] (setting [3]) is 0.451 ± 0.416 µM; in assay [2] it was 0.0391 µM. As for `Cn1ccc(CN2CCc3nc4ccccc4c(C(=O)Nc4ccc(F)c(F)c4)c3C2)n1` [Compound 114, N-(3,4-Difluorophenyl)-2-((1-methyl-1H-pyrazol-3-yl)methyl)-1,2,3,4-tetrahydrobenzo[b][1,6]naphthyridine-10-carboxamide], the EC50 in assay [1] (setting [3]) worked out at 1.89 ± 0.817 µM. As for `O=C(Nc1ccc(F)c(F)c1)c1c2c(nc3cc(Cl)ccc13)CCN(CCc1ccccc1)C2` [Compound 157, 7-Chloro-N-(3,4-difluorophenyl)-2-phenethyl-1,2,3,4-tetrahydrobenzo[b][1,6]naphthyridine-10-carboxamide], in assay [1] (setting [3]), the EC50 was 0.0179 ± 0.01 µM.

With `CS(=O)(=O)CCN1CCc2nc3ccccc3c(C(=O)Nc3ccc(F)c(F)c3)c2C1` [Compound 130, N-(3,4-Difluorophenyl)-2-(2-(methylsulfonyl)ethyl)-1,2,3,4-tetrahydrobenzo[b][1,6]naphthyridine-10-carboxamide], the EC50 in assay [1] (setting [3]) was > 14.7 µM.

Turning to `CCOCC(=O)N1CCc2nc3ccccc3c(C(=O)Nc3ccc(F)c(F)c3)c2C1` [Compound 119, N-(3,4-Difluorophenyl)-2-(2-ethoxyacetyl)-1,2,3,4-tetrahydrobenzo[b][1,6]naphthyridine-10-carboxamide], in assay [1] (setting [3]), the EC50 came out at 3.49 ± 0.831 µM. Same read-out and setting: in the case of `CC(C)(C)OC(=O)N1CCC(N2CCc3nc4ccccc4c(C(=O)Nc4ccc(F)c(F)c4)c3C2)CC1` [Compound 89, tert-Butyl 4-(10-((3,4-difluorophenyl)carbamoyl)-3,4-dihydrobenzo[b][1,6]naphthyridin-2(1H)-yl)piperidine-1-carboxylate] it was 0.0257 ± 0.00583 µM; in that of `O=C(Nc1ccc(F)c(F)c1)c1c2c(nc3ccccc13)CCNC2` [Compound 88, N-(3,4-Difluorophenyl)-1,2,3,4-tetrahydrobenzo[b][1,6]naphthyridine-10-carboxamide], 10.3 ± 10.2 µM. Same read-out and setting: the value for `O=C(Nc1ccc(F)c(F)c1)c1c2c(nc3ccccc13)CCN(CC(F)(F)F)C2` [Compound 123, N-(3,4-Difluorophenyl)-2-(2,2,2-trifluoroethyl)-1,2,3,4-tetrahydrobenzo[b][1,6]naphthyridine-10-carboxamide] was 7.69 ± 8.61 µM; that for `O=C(Nc1ccc(F)c(F)c1)c1c2c(nc3ccccc13)CCN(Cc1ncccc1F)C2` [Compound 118, N-(3,4-difluorophenyl)-2-((3-fluoropyridin-2-yl)methyl)-1,2,3,4-tetrahydrobenzo[b][1,6]naphthyridine-10-carboxamide] was 3.41 ± 2.9 µM.

`CC(=O)O[C@H]1CO[C@H]2[C@@H]1OC[C@@H]2Oc1cccc(NC(=O)c2c3c(nc4ccccc24)CCN(CCc2ccccc2)C3)c1` [Compound 147, (3S,3aR,6S,6aR)-6-(3-(2-Phenethyl-1,2,3,4-tetrahydrobenzo[b][1,6]naphthyridine-10-carboxamido)phenoxy)hexahydrofuro[3,2-b]furan-3-yl acetate]: in assay [1] (3D7, read-out: potency (EC50)), the EC50 is 3.87 µM.

As to `Cn1ccnc1CN1CCc2nc3ccccc3c(C(=O)Nc3ccc(F)c(F)c3)c2C1` [Compound 127, N-(3,4-Difluorophenyl)-2-((1-methyl-1H-imidazol-2-yl)methyl)-1,2,3,4-tetrahydrobenzo[b][1,6]naphthyridine-10-carboxamide], in assay [1] (setting [3]), the EC50 stood at 10.1 ± 6.39 µM.

Take `Cn1cnc(CN2CCc3nc4ccccc4c(C(=O)Nc4ccc(F)c(F)c4)c3C2)c1` [Compound 117, N-(3,4-Difluorophenyl)-2-((1-methyl-1H-imidazol-4-yl)methyl)-1,2,3,4-tetrahydrobenzo[b][1,6]naphthyridine-10-carboxamide]: in assay [1] (setting [3]), the EC50 came out at 2.4 ± 1.39 µM. Take `O=C1c2c3c(nc4cc(Cl)ccc24)CCN(CCc2ccccc2)C3N1c1ccc(F)c(F)c1` (centres unmarked) [Compound 172, 8-Chloro-2-(3,4-difluorophenyl)-3-phenethyl-2a,3,4,5-tetrahydrobenzo[b]pyrrolo[4,3,2-de][1,6]naphthyridin-1(2H)-one]: the concentration giving a half-maximal response (EC50) in assay [1] (3D7) was determined as 0.0071 µM; in assay [1] (setting [3]), 0.0071 ± 0.000461 µM. Take `COC(=O)CN1CCc2nc3ccccc3c(C(=O)Nc3ccc(F)c(F)c3)c2C1` [Compound 125, Methyl 2-(10-((3,4-difluorophenyl)carbamoyl)-3,4-dihydrobenzo[b][1,6]naphthyridin-2(1H)-yl)acetate]: in assay [1] (setting [3]), the EC50 worked out at 9.11 ± 7.61 µM.
